Patent US20070148262A1 (priority 2005, published 2007)

Experiments:
[1] = test system: Salmonella cholerasuis; assay: comparison of antibacterial effects: Green-zone A vs malic acid and grapefruit seed extract; assay type: cell-based; set-up: key: NBD: No Bacteria Detected; BD: Bacteria Detected; conditions: 5% organic matter dilution (yeast extract, hard water)
Method: The antibacterial effect of Green-zone A prepared in Example 1 was compared to the effect of each of malic acid and grapefruit seed extract alone.
A bacterial strain used in the test of antibacterial activity was Salmonella cholerasuis. The Salmonella strain was cultured in nutrient medium at 37° C. for 24 hours and used at a concentration of 5×10^8 cells/ml of the nutrient medium.
Green-zone A prepared in Example 1 was undiluted and diluted 2-fold and 5-fold with hard water. Meanwhile, a composition of 50 g malic acid completely dissolved in 200 ml of purified water, and a composition of 6 g grapefruit seed extract completely dissolved in 200 ml of distilled water, were undiluted and diluted 2-fold and 5-fold.
4 ml of the prepared Salmonella strain was mixed with 96 ml of 5% organic matter dilution (4° C., 5% yeast extract, pH 7.0, diluted with hard water). 2.5 ml of the mixture solution was taken and allowed to react at 4° C. for 30 minutes.
After completion of the reaction, 1 ml of the bacterial dilution was added and mixed with 9 ml of neutralizing medium (containing 5% horse serum inactivated in nutrient medium) at 37° C. Then, the mixture was added into test tubes containing 0.1 ml of each of nutrient media, and was proliferated in an incubator at 37° C. for 48 hours.
After completion of the proliferation, the […] was re-inoculated into blood medium and measured for the bactericidal activity of each of the compositions (Table 15).

[2] = test system: avian influenza viruses (AIV) (field isolate No. 02-8, virus strain K228); assay type: cell-based

O=C(O)CC(O)C(=O)O (stereo not shown) [Malic acid, malic acid]
bactericidal activity ([1]; Original solution): NBD
bactericidal activity ([1]; dilution 1:2): BD
bactericidal activity ([1]; dilution 1:5): BD
disinfectant effects up to dilutions of [2]: no disinfectant effects
